Test results from article PMC5522311, “Adapting AlphaLISA high throughput screen to discover a novel small-molecule inhibitor targeting protein arginine methyltransferase 5 in pancreatic and colorectal cancers” (Oncotarget, 2017).

Biological target: T1, protein arginine methyltransferase 5 (PRMT5) (Homo sapiens, UniProt O14744)
T1 construct: Flag-tagged WT-PRMT5 purified from 293 cells with anti-Flag-M2 beads
Assay: AlphaLISA methyltransferase assay (biotinylated histone H4 R3 symmetric dimethylation)
Format: biochemical

T1 sequence (O14744 2-637): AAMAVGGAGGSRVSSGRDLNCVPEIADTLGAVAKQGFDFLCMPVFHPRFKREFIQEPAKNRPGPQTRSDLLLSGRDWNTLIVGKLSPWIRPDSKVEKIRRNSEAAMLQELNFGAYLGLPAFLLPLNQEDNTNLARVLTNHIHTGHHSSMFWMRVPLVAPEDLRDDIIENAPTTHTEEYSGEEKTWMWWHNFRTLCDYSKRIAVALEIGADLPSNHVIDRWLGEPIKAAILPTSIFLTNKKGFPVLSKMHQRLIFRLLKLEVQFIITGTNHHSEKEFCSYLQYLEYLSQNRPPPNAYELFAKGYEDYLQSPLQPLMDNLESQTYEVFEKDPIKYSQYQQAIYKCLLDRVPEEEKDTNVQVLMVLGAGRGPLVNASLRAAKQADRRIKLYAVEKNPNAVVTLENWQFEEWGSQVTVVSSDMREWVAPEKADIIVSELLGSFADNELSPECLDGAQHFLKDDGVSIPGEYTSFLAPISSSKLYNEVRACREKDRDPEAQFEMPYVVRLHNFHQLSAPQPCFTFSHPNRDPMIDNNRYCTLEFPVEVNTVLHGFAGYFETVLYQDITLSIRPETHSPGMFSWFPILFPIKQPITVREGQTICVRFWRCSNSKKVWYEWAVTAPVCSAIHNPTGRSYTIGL

IC50: 7.5 µM
Compound: Cc1ccc(Nc2nc(NCCN(C)C)nc3c2cnn3-c2ccccc2)cc1C [PR5-LL-CM01]
